Laboratory results: patent US20040229960A1, “Compositions and methods of administering tubulin binding agents for the treatment of ocular diseases” (priority 2001, published 2004)

Tests used:
[1] = Primary ocular irritation, sub-Tenon's injection; format: in vivo, rabbits; settings: for Ocular irritation vs negative control eyes: two 0.1 ml sub-Tenon's injections, 24-72 h
Procedure: The test article, CA4P, was evaluated for primary ocular irritation. Two 0.1 ml injections of the appropriate CA4P concentration (0.1, 1.0, 10 and 100 mg/ml) were injected into the sub-Tenon's space of the right eye of two rabbits. A 0.2 ml portion of buffered saline solution was injected into the sub-Tenon's space of the left eyes to serve as a negative control. Ocular reactions were evaluated at 24, 48 and 72 hours after the sample instillation. On day 3, rabbits were euthanized and eyes were removed. The specimens were fixed and embedded, and histology was performed. Histopathologic changes in the eye tissues were recorded with an emphasis placed on examination of changes in the sub-Tenon's space.

[2] = Biodistribution of 14C-CA4P following periocular injection; format: in vivo, New Zealand rabbits
Procedure: (§1) ^14C-CA4P (OXiGENE Inc., Watertown, Mass.) was resuspended in 100 ul volume of saline solution and injected with a 30 G needle into the right eyes of anesthesized male New Zealand rabbits (4 months old, 1.8-2.5 kg, n=3 per sample). Three different concentrations of ^14C-CA4P were tested (1, 10, 100 mg/ml) corresponding to doses of 1, 5, and 5 uCi of applied radioactivity respectively. A blank control group was also included. Rabbits were anaesthetized at 1, 6, 24, and 48 hours for blood sampling. After blood collection, the animals were euthanized by Phenobarbital injection and the treated right eyes were removed from all test animals. Ocular tissue samples were dissected from the cornea, aqueous humor, vitreous humor, choroid, or retina, placed in 20-mi glass scintillation vials, vortexed, and incubated for 24 hrs with 500 ul digesting fluid. Plasma was separated from whole blood by centrifugation (1,800 g for 10 minutes). Both ocular tissue samples and plasma were incubated at room temperature with 16 ml of Hionic Fluor™ scintillation fluid for a period of 24 hours prior to radioactivity counting. Each sample was counted for 5 minutes in a Betamatic V counter (Bio-Tek Kontron Instruments, St Quentin en Yvelines, France). The conversion of counts per minute (“cpm”) into disintegrations per minute (“dpm”) was performed automatically by the beta-counter, using calibration curves obtained from ^14C-standards and quenching curves from the respective blank matrices spiked with ^14C-standards. The concentration of drug was determined according to nanogram equivalents of CA4P (ng-Eq/g of tissue) which was calculated from the measured dpm value, the weight of the tissue specimen, and the specific activity of the drug (0.37 mCi/mg), followed by subtraction of the corresponding background value from control eye tissue. A tissue concentration of 1 uM CA4P is equal to […] tissue.

[3] = Biodistribution of 14C-CA4P following topical administration of a gel; format: in vivo, New Zealand rabbits
Procedure: as §1
(§2) Topical gels and solutions were developed for use as topical formulation suitable for the topical delivery of CA4P to the surface of the eye. Topical solutions (1, 3, and 10%) was directly prepared in 0.9% NaCl (Aguettant, Lyon, France) and sterilized with 0.2 um filter (pH 6.4 to 8.5, osmolarity 290 to 459 mosmol/kg H2O. Low viscosity topical gels (1,3,and 10%) were prepared in 0.5% carboxymethylcellulose (Sigma Aldrich Chimie, St. Quentin Fallavier Cedex, France) with 0.9% NaCl. The physicochemical specifications of each gel are listed in Table 5
(§3) Topical formulations were applied to the surface of right eyes at an applied dose of 5 uCi in a volume of 50 ul. Cornea was sampled instead of sclera. Samples were taken at […] and 24 hours.

[4] = Biodistribution of 14C-CA4P following topical administration of a solution formulation; format: in vivo, New Zealand rabbits
Procedure: as §1, §2, §3

[5] = tested on: choroidal neovascularization; experiment: Krypton laser murine model of choroidal neovascularization; format: in vivo, C57BL/6J mouse; settings: for Average Vessel Lumen Area: vehicle 0.0129886
Procedure: Choroidal neovascularization is a major cause of severe vision loss in patients with age-related or wet macular degeneration. To investigate the capacity of CA4P to inhibit vascular growth in the choroids, a murine model of Choroidal Neovascularization was tested. In this model the investigator used a krypton laser to create a wound on the Bruch's membrane of a C57BL/6J mouse. Each eye received several burns. The burn elicited a classic wound-healing response that included neovascularization within the choroid. This krypton laser photocoagulation method has been described in Tobe et al., Am. J. of Pathology, 1998, 153(5):1641-6. […] Histopathology and fluorescein angiography were used to identify neovascularization surrounding the burn. Electron microscopy was used to measure the lumen diameter of fenestrated neovasculature within the choroidal neovascular lesions. Table 12 illustrates the results of CA4P treatment on the average vessel lumen area.

COc1ccc(/C=C\c2cc(OC)c(OC)c(OC)c2)cc1OP(=O)([O-])[O-].[Na+].[Na+] [CA4P, combretastatin A4 disodium phosphate]
Ocular irritation vs negative control eyes ([1]; 0.1 and 1.0 mg/ml): no irritation was observed
Ocular irritation vs negative control eyes ([1]; 10 and 100 mg/ml): Slight irritation was observed
Irritation (Draize Scores) ([1]; Sub-Tenon's, 0-10 mg): No Irritation
Cmax ([2]; choroid, 1 mg/ml periocular): 14.3 µM
Cmax ([2]; choroid, 10 mg/ml periocular): 74.5 µM
Cmax ([2]; choroid, 100 mg/ml periocular): 1040 µM
Time of highest concentrations of drug in the eye ([2]; periocular injection): within the first hour
Cmax ([2]; plasma, 1 mg/ml periocular): 0.07 µM
Cmax ([2]; plasma, 10 mg/ml periocular): 0.79 µM
Cmax ([2]; plasma, 100 mg/ml periocular): 12.3 µM
Concentration of drug delivered ([2]; retina and choroid, all administered doses, periocular): > 1 µM
Cmax ([2]; retina, 1 mg/ml periocular): 4.4 µM
Cmax ([2]; retina, 10 mg/ml periocular): 54 µM
Cmax ([2]; retina, 100 mg/ml periocular): 169 µM
Cmax ([2]; sclera, 1 mg/ml periocular): 18 µM
Cmax ([2]; sclera, 10 mg/ml periocular): 280 µM
Cmax ([2]; sclera, 100 mg/ml periocular): 3370 µM
Cmax ([2]; vitreous, 1 mg/ml periocular): 0.03 µM
Cmax ([2]; vitreous, 10 mg/ml periocular): 0.34 µM
Cmax ([2]; vitreous, 100 mg/ml periocular): 3.35 µM
Cmax ([3]; aqueous humor, 1% topical gel): 2.4 µM
Cmax ([3]; aqueous humor, 3% topical gel): 8.2 µM
Cmax ([3]; aqueous humor, 10% topical gel): 13 µM
Cmax ([3]; choroid, 1% topical gel): 2.8 µM
Cmax ([3]; choroid, 3% topical gel): 10.7 µM
Cmax ([3]; choroid, 10% topical gel): 22.5 µM
Concentration of drug delivered ([3]; cornea, retina and choroid, all three gel formulations): > 1 µM
Cmax ([3]; cornea, 1% topical gel, 50 ul): 82 µM
Cmax ([3]; cornea, 3% topical gel, 50 ul): 118 µM
Cmax ([3]; cornea, 10% topical gel, 50 ul): 292 µM
Cmax ([3]; plasma, 1% topical gel): 0.09 µM
Cmax ([3]; plasma, 3% topical gel): 0.56 µM
Cmax ([3]; plasma, 10% topical gel): 1.63 µM
Cmax ([3]; retina, 1% topical gel): 1 µM
Cmax ([3]; retina, 3% topical gel): 5.8 µM
Cmax ([3]; retina, 10% topical gel): 5.8 µM
Time of highest concentrations of drug in the eye ([3]; topical gel): within the first hour
Cmax ([4]; aqueous humor, 1% topical solution): 0.6 µM
Cmax ([4]; aqueous humor, 3% topical solution): 1.9 µM
Cmax ([4]; aqueous humor, 10% topical solution): 4.1 µM
Cmax ([4]; choroid, 1% topical solution): 0.87 µM
Cmax ([4]; choroid, 3% topical solution): 1.9 µM
Cmax ([4]; choroid, 10% topical solution): 15.6 µM
Cmax ([4]; cornea, 1% topical solution, 50 ul): 10 µM
Cmax ([4]; cornea, 3% topical solution, 50 ul): 34 µM
Cmax ([4]; cornea, 10% topical solution, 50 ul): 104 µM
Concentration of drug delivered ([4]; cornea, all three solution formulations): > 1 µM
Cmax ([4]; plasma, 1% topical solution): 0.07 µM
Cmax ([4]; plasma, 3% topical solution): 0.84 µM
Cmax ([4]; plasma, 10% topical solution): 1.27 µM
Cmax ([4]; retina, 1% topical solution): 0.27 µM
Cmax ([4]; retina, 3% topical solution): 0.39 µM
Cmax ([4]; retina, 10% topical solution): 4.2 µM
Time of highest concentrations of drug in the eye ([4]; topical solution): within the first hour
Average Vessel Lumen Area ([5]; 10 mg/kg): 0.01186 mm^2
Average Vessel Lumen Area ([5]; 20 mg/kg): 0.01101 mm^2
Average Vessel Lumen Area ([5]; 100 mg/kg IP): 0.007612 mm^2
Less vascular lumen area compared to saline ([5]; 100 mg/kg/day IP): approximately 50%
